Test results: US7034056B2, “Aryl and biaryl compounds having MCH modulatory activity” (Pharmacopeia Drug Discovery, inc., priority 2001, dated 2006)

Each molecule was assayed against T1, hMCHR (MCH receptor) (Homo sapiens, UniProt Q99705) (assay: MCH Assay PCOP Protocol ([125I]-MCH SPA binding to hMCHR-CHO membranes)). Settings: [125I]-MCH binding to hMCHR-CHO membranes; class symbols for ranges of Ki; read-out: Activity (Ki range).
T1 construct: (or internally produced); host or cells: CHO (Chinese hamster ovary) cells, membrane preparation
T1 sequence (Q99705 whole entry): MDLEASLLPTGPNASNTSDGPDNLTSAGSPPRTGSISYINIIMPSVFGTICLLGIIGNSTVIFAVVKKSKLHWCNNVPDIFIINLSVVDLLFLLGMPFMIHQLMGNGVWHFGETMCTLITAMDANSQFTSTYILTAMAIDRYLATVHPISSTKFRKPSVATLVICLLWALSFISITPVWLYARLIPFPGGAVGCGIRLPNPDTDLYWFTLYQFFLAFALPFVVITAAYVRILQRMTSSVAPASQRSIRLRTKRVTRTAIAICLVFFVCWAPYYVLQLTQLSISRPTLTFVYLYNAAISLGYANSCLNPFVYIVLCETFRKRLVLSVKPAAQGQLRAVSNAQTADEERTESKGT
In short: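 SPA binding with 10 μg hMCHR-CHO membranes and WGA-SPA beads in 25 mM HEPES pH 7.4, 10 mM NaCl, 10 mM MgCl2, 5 mM MnCl2, 0.1% BSA.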
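Note: A 0.4–50 nM B 51–500 nM C 501–2500 nM.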

SMILES | Ki [nM]
COc1cc(-c2ccc(C(CCNC3CCCC3)CNC(=O)Nc3cc(Cl)cc(Cl)c3)cc2)cc(OC)c1OC (centres unmarked) [Example 228] | 51 to 500
O=C(NCC(CCNC1CCCC1)c1ccc(-c2ccsc2)cc1)Nc1cc(Cl)cc(Cl)c1 (centres unmarked) [Example 229] | 51 to 500
O=C(NCC(CCNC1CCCC1)c1ccc(-c2cccs2)cc1)Nc1cc(Cl)cc(Cl)c1 (centres unmarked) [Example 230] | 51 to 500
CN(C)CCCNCCC(CNC(=O)Nc1cc(Cl)cc(Cl)c1)c1ccc(-c2cccs2)cc1 (centres unmarked) [Example 231] | 51 to 500
CN(C)CCCNCCC(CNC(=O)Nc1cc(Cl)cc(Cl)c1)c1ccc(-c2ccccc2Cl)cc1 (centres unmarked) [Example 232] | 51 to 500
CN(C)CCCNCCC(CNC(=O)Nc1cc(Cl)cc(Cl)c1)c1ccc(-c2ccccc2)cc1 (centres unmarked) [Example 233] | 51 to 500
CN(C)CCCNCCC(CNC(=O)Nc1cc(Cl)cc(Cl)c1)c1ccc(-c2ccsc2)cc1 (centres unmarked) [Example 235] | 51 to 500
O=C(NCC(CCNC1CCCC1)c1ccc(-c2cc(Cl)cc(Cl)c2)cc1)Nc1cc(Cl)cc(Cl)c1 (centres unmarked) [Example 236] | 51 to 500
CN(C)CCCNCCC(CNC(=O)Nc1cc(Cl)cc(Cl)c1)c1ccc(-c2ccc(F)cc2)cc1 (centres unmarked) [Example 237] | 51 to 500
COc1ccccc1-c1ccc(C(CCNC2CCCC2)CNC(=O)Nc2cc(Cl)cc(Cl)c2)cc1 (centres unmarked) [Example 238] | 51 to 500
COc1ccc(-c2ccc(C(CCNCCCN(C)C)CNC(=O)Nc3cc(Cl)cc(Cl)c3)cc2)c(OC)c1 (centres unmarked) [Example 239] | 51 to 500
COc1ccc(-c2ccc(C(CCNCCCN(C)C)CNC(=O)Nc3cc(Cl)cc(Cl)c3)cc2)cc1 (centres unmarked) [Example 240] | 51 to 500
COc1ccc(-c2ccc(C(CCNC3CCCC3)CNC(=O)Nc3cc(Cl)cc(Cl)c3)cc2)cc1 (centres unmarked) [Example 241] | 51 to 500
O=C(NCC(CCNC1CCCC1)c1ccc(-c2ccc(O)cc2)cc1)Nc1cc(Cl)cc(Cl)c1 (centres unmarked) [Example 242] | 51 to 500
O=C(NCC(CCNC1CCCC1)c1ccc(-c2ccc(F)cc2)cc1)Nc1cc(Cl)cc(Cl)c1 (centres unmarked) [Example 243] | 51 to 500
O=C(NCC(CCNC1CCCC1)c1ccc(-c2ccc(Cl)c(Cl)c2)cc1)Nc1cc(Cl)cc(Cl)c1 (centres unmarked) [Example 245] | 51 to 500
CN(C)CCCNCCC(CNC(=O)Nc1cc(Cl)cc(Cl)c1)c1ccc(-c2ccc(Cl)cc2)cc1 (centres unmarked) [Example 246] | 51 to 500
CN(C)CCCNCCC(CNC(=O)Nc1cc(Cl)cc(Cl)c1)c1ccc(-c2ccc(Cl)c(Cl)c2)cc1 (centres unmarked) [Example 247] | 51 to 500
O=C(NCC(CCNC1CCCC1)c1ccc(-c2cccc(C(=O)O)c2)cc1)Nc1cc(Cl)cc(Cl)c1 (centres unmarked) [Example 248] | 51 to 500
Cc1ccc(-c2ccc(C(CCNC3CCCC3)CNC(=O)Nc3cc(Cl)cc(Cl)c3)cc2)cc1 (centres unmarked) [Example 249] | 51 to 500
O=C(NCC(CCNC1CCCC1)c1ccc(-c2ccc(C(F)(F)F)cc2)cc1)Nc1cc(Cl)cc(Cl)c1 (centres unmarked) [Example 250] | 51 to 500
CN(C)CCCNCCC(CNC(=O)Nc1cc(Cl)cc(Cl)c1)c1ccc(-c2ccc(O)cc2)cc1 (centres unmarked) [Example 251] | 51 to 500
COc1ccccc1-c1ccc(C(CCNCCCN(C)C)CNC(=O)Nc2cc(Cl)cc(Cl)c2)cc1 (centres unmarked) [Example 252] | 51 to 500

SMILES | Ki [nM]
O=C(NCC(CCNC1CCCC1)c1ccc(-c2cc(C(F)(F)F)cc(C(F)(F)F)c2)cc1)Nc1cc(Cl)cc(Cl)c1 (centres unmarked) [Example 253] | 501 to 2500
Cc1ccc(-c2ccc(C(CCNCCCN(C)C)CNC(=O)Nc3cc(Cl)cc(Cl)c3)cc2)cc1 (centres unmarked) [Example 254] | 501 to 2500
CN(C)CCCNCCC(CNC(=O)Nc1cc(Cl)cc(Cl)c1)c1ccc(-c2ccc(C(F)(F)F)cc2)cc1 (centres unmarked) [Example 255] | 501 to 2500
CN(C)CCCNCCC(CNC(=O)Nc1cc(Cl)cc(Cl)c1)c1ccc(-c2cc(C(F)(F)F)cc(C(F)(F)F)c2)cc1 (centres unmarked) [Example 256] | 501 to 2500
COc1cc(-c2ccc(C(CCNCCCN(C)C)CNC(=O)Nc3cc(Cl)cc(Cl)c3)cc2)cc(OC)c1OC (centres unmarked) [Example 257] | 501 to 2500
O=C(NCc1ccc(F)c(F)c1)NCC(CCN1CCC(N2CCCCC2)CC1)c1ccc(Cl)c(Cl)c1 (centres unmarked) [Example 258] | 51 to 500
COc1cc(CNCCC(CNC(=O)Nc2ccc(Cl)c(Cl)c2)c2ccc(Cl)c(Cl)c2)cc(OC)c1OC (centres unmarked) [Example 259] | 51 to 500
CCOC(=O)N1CCC(NCCC(CNC(=O)Nc2ccc(F)c(Cl)c2)c2ccc(Cl)c(Cl)c2)CC1 (centres unmarked) [Example 260] | 51 to 500
O=C(NCC(CCNCc1ccc2c(c1)OCO2)c1ccc(Cl)c(Cl)c1)Nc1ccc(F)c(Cl)c1 (centres unmarked) [Example 261] | 51 to 500
CCOC(=O)N1CCC(NCCC(CNC(=O)Nc2ccc(F)c(F)c2)c2ccc(Cl)c(Cl)c2)CC1 (centres unmarked) [Example 262] | 51 to 500
O=C(NCC(CCNC1CCC1)c1ccc(Cl)c(Cl)c1)Nc1ccc(F)c(Cl)c1 (centres unmarked) [Example 263] | 501 to 2500
CCOC(=O)N1CCC(NCCC(CNC(=O)Nc2ccc(F)c([N+](=O)[O-])c2)c2ccc(Cl)c(Cl)c2)CC1 (centres unmarked) [Example 264] | 501 to 2500
O=C(NCC(CCNC1CCC1)c1ccc(Cl)c(Cl)c1)Nc1ccc(F)c(F)c1 (centres unmarked) [Example 265] | 501 to 2500
O=C(NCC(CCNC1CCCCC1)c1ccc(Cl)cc1)Nc1cc(Cl)cc(Cl)c1 (centres unmarked) [Example 266] | 51 to 500
O=C(NCC(CCNC1CCCC1)c1ccc(Cl)cc1)Nc1cc(Cl)cc(Cl)c1 (centres unmarked) [Example 267] | 51 to 500
Cc1ccc(C(CCNC2CCCCC2)CNC(=O)Nc2cc(Cl)cc(Cl)c2)cc1 (centres unmarked) [Example 268] | 51 to 500
Cc1ccc(C(CCNC2CCCC2)CNC(=O)Nc2cc(C(F)(F)F)cc(C(F)(F)F)c2)cc1 (centres unmarked) [Example 269] | 51 to 500
Cc1ccc(C(CCNC2CCCCC2)CNC(=O)Nc2cc(C(F)(F)F)cc(C(F)(F)F)c2)cc1 (centres unmarked) [Example 270] | 51 to 500
Cc1ccc(C(CCNC2CCCC2)CNC(=O)Nc2cc(Cl)cc(Cl)c2)cc1 (centres unmarked) [Example 271] | 51 to 500
Cc1ccc(C(CCNC2CCC2)CNC(=O)Nc2cc(Cl)cc(Cl)c2)cc1 (centres unmarked) [Example 272] | 51 to 500
O=C(NCC(CCNC1CCC1)c1ccc(Cl)cc1)Nc1cc(Cl)cc(Cl)c1 (centres unmarked) [Example 273] | 51 to 500
Cc1ccc(C(CCNC2CCC2)CNC(=O)Nc2cc(C(F)(F)F)cc(C(F)(F)F)c2)cc1 (centres unmarked) [Example 274] | 51 to 500
Cc1ccc(C(CCNc2c(C)noc2C)CNC(=O)Nc2cc(Cl)cc(Cl)c2)cc1 (centres unmarked) [Example 275] | 501 to 2500

The next lines start with the values.

Ki [nM] | SMILES
51 to 500 | CCOC(=O)N1CCC(NCCC(CNC(=O)Nc2cc(Cl)cc(Cl)c2)c2ccc(Cl)c(Cl)c2)CC1 (centres unmarked) [Example 277]
51 to 500 | O=C(NCC(CCNCCc1ccc(O)cc1)c1ccc(Cl)c(Cl)c1)Nc1ccc(Cl)c(Cl)c1 (centres unmarked) [Example 278]
51 to 500 | O=C(NCC(CCNC1CCCC1)c1ccc(Cl)c(Cl)c1)Nc1ccc(Cl)c(Cl)c1 (centres unmarked) [Example 279]
51 to 500 | O=C(NCC(CCNC1CCCC1)c1ccc(Cl)c(Cl)c1)Nc1cc(Cl)cc(Cl)c1 (centres unmarked) [Example 280]
51 to 500 | CCOC(=O)N1CCC(NCCC(CNC(=O)Nc2cccc(C(F)(F)F)c2)c2ccc(Cl)c(Cl)c2)CC1 (centres unmarked) [Example 281]
51 to 500 | O=C(NCC(CCNC1CCC1)c1ccc(Cl)c(Cl)c1)Nc1ccc(Cl)c(Cl)c1 (centres unmarked) [Example 282]
51 to 500 | O=C(NCC(CCNC1CCC1)c1ccc(Cl)c(Cl)c1)Nc1cccc(C(F)(F)F)c1 (centres unmarked) [Example 283]
51 to 500 | Cn1cnc(CCNCCC(CNC(=O)Nc2ccc(Cl)c(Cl)c2)c2ccc(Cl)c(Cl)c2)c1 (centres unmarked) [Example 284]
51 to 500 | O=C(NCC(CCN1CCC(N2CCCCC2)CC1)c1ccc(Cl)c(Cl)c1)Nc1ccc([N+](=O)[O-])c(Cl)c1 (centres unmarked) [Example 286]
51 to 500 | O=C(NCC(CCN1CCCC1)c1ccc(Cl)c(Cl)c1)Nc1ccc(Cl)c(Cl)c1 (centres unmarked) [Example 287]
51 to 500 | CCCN(CC)CCC(CNC(=O)Nc1cccc(C(F)(F)F)c1)c1ccc(Cl)c(Cl)c1 (centres unmarked) [Example 288]
51 to 500 | CCCN(CC)CCC(CNC(=O)Nc1ccc(Cl)c(Cl)c1)c1ccc(Cl)c(Cl)c1 (centres unmarked) [Example 289]
51 to 500 | O=C(NCC(CCNC1CCCC1)c1ccc(Cl)c(Cl)c1)Nc1cccc(C(F)(F)F)c1 (centres unmarked) [Example 290]
51 to 500 | CN(C)C1CCN(CCC(CNC(=O)Nc2ccc(Cl)c(Cl)c2)c2ccc(Cl)c(Cl)c2)C1 (centres unmarked) [Example 291]
51 to 500 | CN(C)C1CCN(CCC(CNC(=O)Nc2cc(Cl)cc(Cl)c2)c2ccc(Cl)c(Cl)c2)C1 (centres unmarked) [Example 292]
51 to 500 | O=C(NCC(CCNCCc1ccc(O)cc1)c1ccc(Cl)c(Cl)c1)Nc1cccc(C(F)(F)F)c1 (centres unmarked) [Example 293]
501 to 2500 | O=C(NCC(CCNCCc1c[nH]c2ccccc12)c1ccc(Cl)c(Cl)c1)Nc1cc(Cl)cc(Cl)c1 (centres unmarked) [Example 294]
501 to 2500 | O=C(NCC(CCNCc1ccc2c(c1)OCO2)c1ccc(Cl)c(Cl)c1)Nc1cc(Cl)cc(Cl)c1 (centres unmarked) [Example 295]
501 to 2500 | O=C(NCC(CCNCc1ccc2c(c1)OCO2)c1ccc(Cl)c(Cl)c1)Nc1ccc(Cl)c(Cl)c1 (centres unmarked) [Example 296]
501 to 2500 | Cn1cnc(CCNCCC(CNC(=O)Nc2cc(Cl)cc(Cl)c2)c2ccc(Cl)c(Cl)c2)c1 (centres unmarked) [Example 297]
501 to 2500 | CN1CCCC1CCNCCC(CNC(=O)Nc1ccc(Cl)c(Cl)c1)c1ccc(Cl)c(Cl)c1 (centres unmarked) [Example 298]
501 to 2500 | O=C(NCC(CCN1CCCC1)c1ccc(Cl)c(Cl)c1)Nc1cccc(C(F)(F)F)c1 (centres unmarked) [Example 299]
501 to 2500 | CN1CCCC1CCNCCC(CNC(=O)Nc1cccc(C(F)(F)F)c1)c1ccc(Cl)c(Cl)c1 (centres unmarked) [Example 300]
501 to 2500 | CN1CCCC1CCNCCC(CNC(=O)Nc1cc(Cl)cc(Cl)c1)c1ccc(Cl)c(Cl)c1 (centres unmarked) [Example 301]
501 to 2500 | O=C(NCC(CCNCc1ccc2c(c1)OCO2)c1ccc(Cl)c(Cl)c1)Nc1cccc(C(F)(F)F)c1 (centres unmarked) [Example 302]
501 to 2500 | Cn1cnc(CCNCCC(CNC(=O)Nc2cccc(C(F)(F)F)c2)c2ccc(Cl)c(Cl)c2)c1 (centres unmarked) [Example 303]
501 to 2500 | CN(C)CCCNCCC(CNC(=O)Nc1cc(Cl)cc(Cl)c1)c1ccc(Cl)c(Cl)c1 (centres unmarked) [Example 304]
501 to 2500 | CN(C)CCCNCCC(CNC(=O)Nc1ccc(Cl)c(Cl)c1)c1ccc(Cl)c(Cl)c1 (centres unmarked) [Example 305]
